# Results: paper PMC6792352, “Limited Chemical Structural Diversity Found to Modulate Thyroid Hormone Receptor in the Tox21 Chemical Library” (Environmental Health Perspectives, 2019)
# Where a name gives a salt, the structure may show the parent alone.
# Assay: in vitro
# Details: rat, gh3-tre-luc cells, AC50 (uM) modified / 1000
row,SMILES,CC50 at 24 h
1,OCCC(F)(F)C(F)(F)C(F)(F)C(F)(F)C(F)(F)C(F)(F)C(F)(F)C(F)(F)F [8:2 Fluorotelomer alcohol],> 90 µM
2,"CC(=O)Nc1ccn(C2COC(COC(=O)c3ccccc3)O2)c(=O)n1 (centres unmarked) [{4-[4-(Acetylamino)-2-oxopyrimidin-1(2H)-yl]-1,3-dioxolan-2-yl}methyl benzoate]",> 50 µM
3,"CCCCC/C=C\C=C\C(=O)OCC [Ethyl (2E,4Z)-deca-2,4-dienoate]",29.3 µM
4,"O=C(c1ccccc1)c1ccc(O)c(O)c1O [2,3,4-Trihydroxbenzophenone]",75 µM
5,O=C(Nc1ccc2[nH]ccc2c1)c1cc2cc(F)ccc2n1Cc1cccc(F)c1 [SAR115740],14.6 µM
6,C[C@H](Cc1ccc(O)c(O)c1)[C@@H](C)Cc1ccc(O)c(O)c1 [Nordihydroguaiaretic acid],8.42 µM
7,Cc1cccc(Nc2ncccc2C(=O)O)c1C [Nixylic acid],> 50 µM
8,CCCCOCCOCCOC(=O)CCCCC(=O)OCCOCCOCCCC [Bis[2-(2-butoxyethoxy)ethyl] adipate],> 90 µM
9,Cc1nnc2n1-c1ccc(Cl)cc1C(c1ccccc1)=NC2 [Alprazolam],> 50 µM
10,NC[C@@H]1CC[C@@H](N)[C@@H](O[C@H]2[C@H](O)[C@@H](O[C@H]3O[C@H](CO)[C@@H](O)[C@H](N)[C@H]3O)[C@H](N)C[C@@H]2N)O1 [Dibekacin],> 50 µM
11,CC[C@@H]([C@H](C)O)n1ncn(-c2ccc(N3CCN(c4ccc(OC[C@@H]5CO[C@@](Cn6cncn6)(c6ccc(F)cc6F)C5)cc4)CC3)cc2)c1=O [Posaconazole],26.4 µM
12,CCc1ncnc2cc(OC)c(OC)cc12 [Quazodine],> 50 µM
13,CC(=O)OCCOCCOCCOC(C)=O [Triethylene glycol diacetate],> 90 µM
14,CCCCCC1CCC(=O)O1 (centres unmarked) [gamma-Nonanolactone],> 90 µM
15,O=C(O)c1ccccc1C(=O)OCc1ccccc1 [Monobenzyl phthalate],> 90 µM
16,"CCN(CC)c1ccccc1 [N,N-Diethylaniline]",> 90 µM
17,C#CC(C)N(C)C(=O)Nc1ccc(Cl)cc1 (centres unmarked) [Buturon],> 90 µM
18,O=C(NS(=O)(=O)/C=C/c1cccs1)c1ccc(F)cc1Br [PharmaGSID_48518],> 90 µM
19,CCOc1cc(C=O)ccc1O [3-Ethoxy-4-hydroxybenzaldehyde],> 50 µM
20,C=CC(=O)N1CCOCC1 [1-(Morpholin-4-yl)prop-2-en-1-one],> 90 µM
21,"CC(=O)c1ccc2c(c1)CCCC2 [6-Acetyl-1,2,3,4-tetrahydronaphthalene]",> 90 µM
22,C=CC(C)(CCC=C(C)C)OC(=O)c1ccccc1 (centres unmarked) [Linalyl benzoate],53.7 µM
23,"CCCCCC[C@@H](O)C/C=C\CCCCCCCC(=O)O [(9Z,12R)-12-Hydroxyoctadec-9-enoic acid]",80.8 µM

row,SMILES,CC50 at 24 h
1,c1ccc2c(c1)OCC(CN1CCCCC1)O2 (centres unmarked) [Piperoxan],> 50 µM
2,"Cc1nc2ccccc2c(=O)o1 [2-Methyl-4H,3,1-benzoxazin-4-one]",> 90 µM
3,O=S1(=O)OC(c2cc(Br)c(O)c(Br)c2)(c2cc(Br)c(O)c(Br)c2)c2ccccc21 [Bromophenol blue],63.9 µM
4,O=C(CS)Nc1ccccc1 [Thioglycolic acid anilide],33.8 µM
5,CC/C=C/CCCCCCCCC1CC(=O)OC1=O (centres unmarked) [(Tetrapropenyl)succinic anhydride],> 90 µM
6,O=C(NN1CCCC1)NS(=O)(=O)c1ccc(Cl)cc1 [Glyclopyramide],> 50 µM
7,"CC1COc2ccccc2N1 (centres unmarked) [3-Methyl-3,4-dihydro-2H-1,4-benzoxazine]",> 90 µM
8,O=C1c2c(O)ccc(O)c2C(=O)c2c(NCCNCCO)ccc(NCCNCCO)c21 [Mitoxantrone dihydrochloride],0.988 µM
9,CC(=O)Nc1ccc(OCC(O)CNC(C)C)cc1 (centres unmarked) [Practolol],> 50 µM
10,O=C(Nc1cccc([N+](=O)[O-])c1)c1cc2ccccc2cc1O [3-Hydroxy-N-(3-nitrophenyl)naphthalene-2-carboxamide],1.77 µM
11,Cc1ccccc1C [o-Xylene],> 90 µM
12,"O=C1C=CC(=O)C=C1 [1,4-Benzoquinone]",> 90 µM
13,"Nc1cc(S(=O)(=O)O)cc2cc(S(=O)(=O)O)cc(O)c12 [Monosodium 8-amino-1-naphthol-3,6-disulfonate]",> 90 µM
14,CO/N=C(\C(=O)N[C@@H]1C(=O)N2C(C(=O)O)=C(Cn3ccc(=N)n3CCO)CS[C@H]12)c1csc(N)n1 [Cefoselis sulfate],> 50 µM
15,O=C1CC2(CCCC2)CC(=O)N1CCCCN1CCN(c2ncccn2)CC1 [Buspirone],89.7 µM
16,"NNS(=O)(=O)c1ccc(Oc2ccc(S(=O)(=O)NN)cc2)cc1 [4,4'-Oxybis(benzenesulfohydrazide)]",> 90 µM
17,OC[C@H]1O[C@@H](O[C@H]2[C@H](O)[C@@H](O)C(O)O[C@@H]2CO)[C@H](O)[C@@H](O)[C@H]1O (some centres unmarked) [Lactose],> 90 µM
18,CC(C)(O)C(=O)O [2-Hydroxyisobutyric acid],> 90 µM
19,C[C@H](N)C(=O)N[C@@H](C)P(=O)(O)O [Alafosfalin],> 50 µM
20,CC(C)C=O [2-Methylpropanal],> 90 µM
21,CC1=CC(=O)NS(=O)(=O)O1 [Acesulfame potassium],> 90 µM
22,O=C(NC(=O)c1c(F)cccc1F)Nc1cc(Cl)c(OC(F)(F)C(F)F)c(Cl)c1 [Hexaflumuron],> 90 µM
23,C=CCN1C[C@H](C(=O)N(CCCN(C)C)C(=O)NCC)C[C@@H]2c3cccc4[nH]cc(c34)C[C@H]21 [Cabergoline],5.04 µM

row,SMILES,CC50 at 24 h
1,COc1ccc(Br)c(C)c1 [1-Bromo-4-methoxy-2-methylbenzene],> 90 µM
2,CC(CCl)OP(=O)(OC(C)CCl)OC(C)CCl (centres unmarked) [Tris(2-chloroisopropyl)phosphate],> 90 µM
3,O=S(=O)(O)CCS [Sodium 2-mercaptoethanesulfonate],> 90 µM
4,O=C(O[C@H]1C[C@H]2CC[C@@H](C1)[N+]21CCCC1)C(O)(c1ccccc1)c1ccccc1 [Trospium chloride],> 50 µM
5,O=C(N[C@H](CO)[C@H](O)c1ccc([N+](=O)[O-])cc1)C(Cl)Cl [Chloramphenicol],> 90 µM
6,CC[N+](CC)(CCNC(=O)C(=O)NCC[N+](CC)(CC)Cc1ccccc1Cl)Cc1ccccc1Cl [Ambenonium chloride],> 50 µM
7,CCN(CC)CCCC(C)Nc1cc(/C=C/c2ccccc2Cl)nc2cc(Cl)ccc12 (centres unmarked) [Aminoquinol],20.1 µM
8,CC(=O)c1ccc2c(c1)N(CCCN1CCC(CCO)CC1)c1ccccc1S2 [Piperacetazine],10.7 µM
9,C1C2OC2C2C1C1CC2C2OC12 (centres unmarked) [Dicyclopentadiene dioxide],> 90 µM
10,Fc1ccccc1[C@@H](F)COC1CCC(Nc2ncnc3[nH]ncc23)CC1 (some centres unmarked) [MK-968],82.7 µM
11,"O=C(O)c1ccc(Cl)c(Cl)c1 [3,4-Dichlorobenzoic acid]",> 90 µM
12,CC(N/C(=N\C#N)Nc1ccncc1)C(C)(C)C (centres unmarked) [Pinacidil monohydrate],> 50 µM
13,"CO[Si](CCCn1c(=O)n(CCC[Si](OC)(OC)OC)c(=O)n(CCC[Si](OC)(OC)OC)c1=O)(OC)OC [1,3,5-Tris[3-(trimethoxysilyl)propyl]-1,3,5-triazinane-2,4,6-trione]",> 70 µM
14,Nc1nnnn1-c1ccccc1 [Fenamol],> 50 µM
15,OCc1cccnc1 [Nicotinyl alcohol],> 50 µM
16,CCNS(=O)(=O)c1ccc(C)cc1 [N-Ethyl-4-methylbenzenesulfonamide],> 90 µM
17,C[C@H](Cc1ccc(OCC(=O)O)cc1)NC[C@H](O)c1csc(C(F)(F)F)n1 [CP-114271],> 90 µM
18,O=c1[nH][nH]c(=O)c2cc([N+](=O)[O-])ccc12 [6-Nitrophthalhydrazide],> 90 µM
19,O=C1C(O)=C([C@H]2CC[C@H](c3ccc(Cl)cc3)CC2)C(=O)c2ccccc21 [Atovaquone],8.49 µM
20,O=C(O)c1ccc(NC(=O)[C@H](Cc2ccc(O)cc2)NC(=O)c2ccccc2)cc1 [Bentiromide sodium],> 50 µM
21,CC[C@H]1C[C@@H]2C[C@H]3c4[nH]c5ccc(OC)cc5c4CCN(C2)[C@@H]13 [Ibogaine hydrochloride],62.4 µM
22,COC(=O)C(C)Oc1ccc(Oc2ccc(Cl)cc2Cl)cc1 (centres unmarked) [Diclofop-methyl],> 90 µM

# Same assay, conditions: rat, gh3-tre-luc cells, AC50 (uM) modified / 1000, Tox21_110001=Tox21_112103; viability, 1 nM T3 present, 24 h
row,SMILES,CC50 at 24 h
1,O=c1n(Cl)c(=O)n(Cl)c(=O)n1Cl [Symclosene],> 50 µM

# Same assay, conditions: rat, gh3-tre-luc cells, AC50 (uM) modified / 1000, Tox21_110001=Tox21_112828; viability, 1 nM T3 present, 24 h
row,SMILES,CC50 at 24 h
1,CC[C@@H](O)C(C[C@@H](C)N(C)C)(c1ccccc1)c1ccccc1 [(+)-alpha-Methadol hydrochloride],> 100 µM

# Same assay, conditions: rat, gh3-tre-luc cells, AC50 (uM) modified / 1000, Tox21_110001=Tox21_200923; viability, 1 nM T3 present, 24 h
row,SMILES,CC50 at 24 h
1,O=C(O)C(Cl)(Cl)Br [Bromodichloroacetic acid],> 90 µM

# Same assay, conditions: rat, gh3-tre-luc cells, AC50 (uM) modified / 1000, Tox21_110001=Tox21_201627; viability, 1 nM T3 present, 24 h
row,SMILES,CC50 at 24 h
1,Nc1ccc(Cl)cc1 [4-Chloroaniline hydrochloride],> 90 µM

# Same assay, conditions: rat, gh3-tre-luc cells, AC50 (uM) modified / 1000, Tox21_110001=Tox21_202075; viability, 1 nM T3 present, 24 h
row,SMILES,CC50 at 24 h
1,O=C(CCl)c1ccccc1 [2-Chloroacetophenone],> 90 µM

# Same assay, conditions: rat, gh3-tre-luc cells, AC50 (uM) modified / 1000, Tox21_110001=Tox21_300045; viability, 1 nM T3 present, 24 h
row,SMILES,CC50 at 24 h
1,O=C(CCl)c1ccccc1 [2-Chloroacetophenone],62.3 µM

# Same assay, conditions: rat, gh3-tre-luc cells, AC50 (uM) modified / 1000, Tox21_110001=Tox21_300858; viability, 1 nM T3 present, 24 h
row,SMILES,CC50 at 24 h
1,O=c1n(Cl)c(=O)n(Cl)c(=O)n1Cl [Symclosene],> 90 µM

# Same assay, conditions: rat, gh3-tre-luc cells, AC50 (uM) modified / 1000, Tox21_110001=Tox21_300910; viability, 1 nM T3 present, 24 h
row,SMILES,CC50 at 24 h
1,COP(=S)(OC)Oc1cc(Cl)c(I)cc1Cl [Iodenphos],> 90 µM

# Same assay, conditions: rat, gh3-tre-luc cells, AC50 (uM) modified / 1000, Tox21_110001=Tox21_301206; viability, 1 nM T3 present, 24 h
row,SMILES,CC50 at 24 h
1,COP(=S)(NC(C)C)Oc1ccc(C)cc1[N+](=O)[O-] (centres unmarked) [Amiprofos-methyl],> 90 µM
